# US20050209220A1, “Treatment of peripheral neuropathy” (priority 2004, published 2005)
# Where a name gives a salt, the structure may show the parent alone.
# Test system: diabetic patient with neuropathy of the lower extremities
# Assay: Case reports: diabetic patients with neuropathy / pain of the lower extremities
# Format: in vivo, human
# Description: 2. A diabetic patient with severe pains in their legs reported that it was very difficult for them to sleep with the pain. At first, they were instructed to take the one-half the regimen described in Example 1, that is 10 mgs of desipramine and 1 mg of fluphenazine at bedtime. […] 3. A diabetic patient with neuropathy of the lower extremities was prescribed 10 mgs of desipramine alone orally every twelve hours. […] 4. A diabetic patient with severe pain in the lower legs and feet was instructed to take 1 mg of fluphenazine hydrochloride orally every twelve hours beginning at bedtime. […] 5. A diabetic patient with severe lower extremity neuropathy manifested as pain in the lower legs and feet was instructed to take 2 mgs of fluphenazine hydrochloride orally every twelve hours beginning at bedtime.
Structure (SMILES),"patient-reported pain reduction (diabetic patient (Example 3), desipramine alone, 10 mgs orally every twelve hours (20 mgs/day))","patient-reported pain reduction (diabetic patient (Example 3), desipramine alone, higher dosage of 40 mgs per day)","patient-reported pain reduction (diabetic patient (Example 4), fluphenazine hydrochloride alone, 1 mg orally every twelve hours, after two weeks)","patient-reported pain reduction (diabetic patient (Example 5), fluphenazine hydrochloride alone, 2 mgs orally every twelve hours, after two weeks)","patient-reported pain reduction (diabetic patient (Example 5), fluphenazine hydrochloride alone, 4 mgs every twelve hours)"
CNCCCN1c2ccccc2CCc2ccccc21 [desipramine],lack of effectiveness in reducing pain,lack of effectiveness in reducing pain,,,
OCCN1CCN(CCCN2c3ccccc3Sc3ccc(C(F)(F)F)cc32)CC1 [fluphenazine hydrochloride],,,"somewhat of an improvement in pain reduction, but not complete elimination","somewhat of an improvement in pain reduction, but not complete elimination",substantial improvement in reducing the severity of pain
